Source: patent US9834550B2, “Pyridopyrimidinone compounds for modulating the catalytic activity of histone lysine demethylases (KDMs)” (Dong-A Socio Holdings Co., Ltd., priority 2014, dated 2017)

Target: T1, Recombinant human JARID1B/KDM5B (Homo sapiens, UniProt Q9UGL1)
T1 construct: purchased Active Motif 31432; host or cells: Sf9 insect cells
Assay: LANCE Ultra TR-FRET demethylase assay with FLAG-tagged JARID1B
Format: biochemical
Conditions: 100 nM compound; 500 nM biotinylated H3K4me3 peptide substrate
Summary of the method: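 Sf9-expressed N-FLAG full-length JARID1B (10–30 nM) preincubated 5 min with compound at 20, 1 or 0.1 uM (1% DMSO), then 500 nM biotin-H3K4me3 peptide, 500 uM 2-OG, 25 uM Fe(II), 2 mM ascorbate added; 30 min at room temperature in Hepes pH 7.5. H3K4me2/1 product read by TR-FRET 665/590 ratio.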

T1 sequence (Q9UGL1 whole entry): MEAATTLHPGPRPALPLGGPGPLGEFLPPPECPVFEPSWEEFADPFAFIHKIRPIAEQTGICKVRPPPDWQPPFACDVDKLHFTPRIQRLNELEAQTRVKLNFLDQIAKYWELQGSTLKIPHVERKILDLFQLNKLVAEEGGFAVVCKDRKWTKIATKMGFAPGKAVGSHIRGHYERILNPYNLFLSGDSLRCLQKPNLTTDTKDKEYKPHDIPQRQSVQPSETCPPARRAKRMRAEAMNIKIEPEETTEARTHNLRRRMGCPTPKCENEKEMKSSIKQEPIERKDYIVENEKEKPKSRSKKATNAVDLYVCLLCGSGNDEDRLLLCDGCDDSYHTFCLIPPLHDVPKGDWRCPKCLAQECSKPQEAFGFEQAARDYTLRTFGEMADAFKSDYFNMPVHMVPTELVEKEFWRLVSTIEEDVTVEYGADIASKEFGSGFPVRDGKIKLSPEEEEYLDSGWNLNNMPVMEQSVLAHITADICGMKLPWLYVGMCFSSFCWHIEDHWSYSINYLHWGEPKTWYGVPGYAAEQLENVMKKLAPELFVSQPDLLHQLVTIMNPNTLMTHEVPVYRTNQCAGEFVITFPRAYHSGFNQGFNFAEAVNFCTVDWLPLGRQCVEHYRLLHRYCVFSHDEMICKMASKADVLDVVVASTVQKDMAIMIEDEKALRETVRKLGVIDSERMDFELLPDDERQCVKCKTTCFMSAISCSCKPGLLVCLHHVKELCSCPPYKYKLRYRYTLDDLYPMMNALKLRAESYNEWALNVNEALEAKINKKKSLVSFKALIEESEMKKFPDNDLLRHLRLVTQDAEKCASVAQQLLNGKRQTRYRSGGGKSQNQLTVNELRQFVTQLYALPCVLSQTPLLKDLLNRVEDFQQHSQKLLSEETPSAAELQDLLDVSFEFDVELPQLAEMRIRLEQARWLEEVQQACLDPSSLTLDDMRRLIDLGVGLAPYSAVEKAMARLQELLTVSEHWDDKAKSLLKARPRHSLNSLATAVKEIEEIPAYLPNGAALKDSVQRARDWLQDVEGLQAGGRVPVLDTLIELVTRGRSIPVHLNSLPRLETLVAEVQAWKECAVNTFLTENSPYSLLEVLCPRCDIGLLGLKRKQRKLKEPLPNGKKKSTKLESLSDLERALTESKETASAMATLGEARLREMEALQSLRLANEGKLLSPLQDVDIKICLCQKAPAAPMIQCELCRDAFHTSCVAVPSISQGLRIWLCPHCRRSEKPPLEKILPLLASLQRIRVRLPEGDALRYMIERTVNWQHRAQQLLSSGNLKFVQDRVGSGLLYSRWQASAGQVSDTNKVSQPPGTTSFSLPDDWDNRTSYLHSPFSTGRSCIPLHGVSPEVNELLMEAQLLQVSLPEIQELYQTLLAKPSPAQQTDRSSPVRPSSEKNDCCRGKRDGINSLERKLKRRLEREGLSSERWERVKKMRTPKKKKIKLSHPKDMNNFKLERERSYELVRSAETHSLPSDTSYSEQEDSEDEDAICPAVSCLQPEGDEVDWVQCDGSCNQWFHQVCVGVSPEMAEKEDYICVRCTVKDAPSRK

| inhibition at 0.1 µM | Structure (SMILES) |
| --- | --- |
| > 50% | CN1CCC(CNCc2nccc3c(=O)[nH]c(COCc4cccc(Cl)c4)nc23)CC1 [Example 207, 2-(((3-chlorobenzyl)oxy)methyl)-8-((((1-methylpiperidin-4-yl)methyl)amino)methyl)pyrido[3,4-d]pyrimidin-4(3H)-one] |
| > 50% | CN1CCC(CNCc2nccc3c(=O)[nH]c(COCc4ccccc4Cl)nc23)CC1 [Example 210, 2-(((2-chlorobenzyl)oxy)methyl)-8-((((1-methylpiperidin-4-yl)methyl)amino)methyl)pyrido[3,4-d]pyrimidin-4(3H)-one] |
| < 20% | CC(Oc1ccc(Cc2ccccc2)cc1)c1nc2c(CNCC3CCN(C)CC3)nccc2c(=O)[nH]1 (stereo not drawn) [Example 211, 2-(1-(4-benzylphenoxy)ethyl)-8-((((1-methylpiperidin-4-yl)methyl)amino)methyl)pyrido[3,4-d]pyrimidin-4(3H)-one] |
| 20 to 50% | CC(Oc1ccc(Cc2ccccc2)cc1)c1nc2c(CNCC3CCN(C)C3)nccc2c(=O)[nH]1 (stereo not drawn) [Example 214, 2-(1-(4-benzylphenoxy)ethyl)-8-((((1-methylpyrrolidin-3-yl)methyl)amino)methyl)pyrido[3,4-d]pyrimidin-4(3H)-one] |
| > 50% | C[C@@H](Oc1ccc(Cc2ccccc2)cc1)c1nc2c(CNCC3CCN(C)CC3)nccc2c(=O)[nH]1 [Example 216, (R)-2-(1-(4-benzylphenoxy)ethyl)-8-((((1-methylpiperidin-4-yl)methyl)amino)methyl)pyrido[3,4-d]pyrimidin-4(3H)-one] |
| < 20% | C[C@@H](Oc1ccc(F)c(Cl)c1)c1nc2c(CNCC3CCNCC3)nccc2c(=O)[nH]1 [Example 217, (R)-2-(1-(3-chloro-4-fluorophenoxy)ethyl)-8-(((piperidin-4-ylmethyl)amino)methyl)pyrido[3,4-d]pyrimidin-4(3H)-one] |
| 20 to 50% | C[C@@H](Oc1ccc(F)c(Cl)c1)c1nc2c(CNCC3CCN(C)CC3)nccc2c(=O)[nH]1 [Example 218, (R)-2-(1-(3-chloro-4-fluorophenoxy)ethyl)-8-((((1-methylpiperidin-4-yl)methyl)amino)methyl)pyrido[3,4-d]pyrimidin-4(3H)-one] |
| 20 to 50% | C[C@H](Oc1ccc(F)c(Cl)c1)c1nc2c(CNCC3CCNCC3)nccc2c(=O)[nH]1 [Example 219, (S)-2-(1-(3-chloro-4-fluorophenoxy)ethyl)-8-(((piperidin-4-ylmethyl)amino)methyl)pyrido[3,4-d]pyrimidin-4(3H)-one] |
| > 50% | C[C@H](Oc1ccc(F)c(Cl)c1)c1nc2c(CNCC3CCN(C)CC3)nccc2c(=O)[nH]1 [Example 220, (S)-2-(1-(3-chloro-4-fluorophenoxy)ethyl)-8-((((1-methylpiperidin-4-yl)methyl)amino)methyl)pyrido[3,4-d]pyrimidin-4(3H)-one] |
| 20 to 50% | O=C(CNCc1nccc2c(=O)[nH]c(COc3ccc(F)c(Cl)c3)nc12)N1CCCC1 [Example 223, 2-((3-chloro-4-fluorophenoxy)methyl)-8-(((2-oxo-2-(pyrrolidin-1-yl)ethyl)amino)methyl)pyrido[3,4-d]pyrimidin-4(3H)-one] |
| 20 to 50% | O=C(CNCc1nccc2c(=O)[nH]c(COc3ccc(F)c(Cl)c3)nc12)N1CCCCC1 [Example 224, 2-((3-chloro-4-fluorophenoxy)methyl)-8-(((2-oxo-2-(piperidin-1-yl)ethyl)amino)methyl)pyrido[3,4-d]pyrimidin-4(3H)-one] |
| 20 to 50% | O=C(CNCc1nccc2c(=O)[nH]c(COc3ccc(F)c(Cl)c3)nc12)N1CCOCC1 [Example 225, 2-((3-chloro-4-fluorophenoxy)methyl)-8-(((2-morpholino-2-oxoethyl)amino)methyl)pyrido[3,4-d]pyrimidin-4(3H)-one] |
| > 50% | CN1CCN(C(=O)CNCc2nccc3c(=O)[nH]c(COc4ccc(F)c(Cl)c4)nc23)CC1 [Example 226, 2-((3-chloro-4-fluorophenoxy)methyl)-8-(((2-(4-methylpiperazin-1-yl)-2-oxoethyl)amino)methyl)pyrido[3,4-d]pyrimidin-4(3H)-one] |
| 20 to 50% | CN1CCC(CNC(=O)CNCc2nccc3c(=O)[nH]c(COc4ccc(F)c(Cl)c4)nc23)C1 (stereo not drawn) [Example 227, 2-(((2-((3-chloro-4-fluorophenoxy)methyl)-4-oxo-3,4-dihydropyrido[3,4-d]pyrimidin-8-yl)methyl)amino)-N-((1-methylpyrrolidin-3-yl)methyl)acetamide] |
| > 50% | N[C@@H]1CCN(C(=O)CNCc2nccc3c(=O)[nH]c(COc4ccc(F)c(Cl)c4)nc23)C1 [Example 228, (R)-8-(((2-(3-aminopyrrolidin-1-yl)-2-oxoethyl)amino)methyl)-2-((3-chloro-4-fluorophenoxy)methyl)pyrido[3,4-d]pyrimidin-4(3H)-one] |
| > 50% | N[C@H]1CCN(C(=O)CNCc2nccc3c(=O)[nH]c(COc4ccc(F)c(Cl)c4)nc23)C1 [Example 229, (S)-8-(((2-(3-aminopyrrolidin-1-yl)-2-oxoethyl)amino)methyl)-2-((3-chloro-4-fluorophenoxy)methyl)pyrido[3,4-d]pyrimidin-4(3H)-one] |
| > 50% | O=C(CNCc1nccc2c(=O)[nH]c(COc3ccc(F)c(Cl)c3)nc12)N[C@@H]1CCCNC1 [Example 230, (R)-2-(((2-((3-chloro-4-fluorophenoxy)methyl)-4-oxo-3,4-dihydropyrido[3,4-d]pyrimidin-8-yl)methyl)amino)-N-(piperidin-3-yl)acetamide] |
| > 50% | O=C(CNCc1nccc2c(=O)[nH]c(COc3ccc(F)c(Cl)c3)nc12)N[C@H]1CCCNC1 [Example 231, (S)-2-(((2-((3-chloro-4-fluorophenoxy)methyl)-4-oxo-3,4-dihydropyrido[3,4-d]pyrimidin-8-yl)methyl)amino)-N-(piperidin-3-yl)acetamide] |

The next lines start with the compound.

| Structure (SMILES) | inhibition at 0.1 µM |
| --- | --- |
| O=c1[nH]c(COCc2ccccc2)nc2c(CNC[C@H]3CCNC3)nccc12 [Example 204, (S)-2-((benzyloxy)methyl)-8-(((pyrrolidin-3-ylmethyl)amino)methyl)pyrido[3,4-d]pyrimidin-4(3H)-one] | 20 to 50% |
| CN1CCC(CNCc2nccc3c(=O)[nH]c(COCc4ccccc4)nc23)C1 (stereo not drawn) [Example 205, 2-((benzyloxy)methyl)-8-((((1-methylpyrrolidin-3-yl)methyl)amino)methyl)pyrido[3,4-d]pyrimidin-4(3H)-one] | 20 to 50% |
| O=c1[nH]c(COCc2cccc(Cl)c2)nc2c(CNCC3CCNCC3)nccc12 [Example 206, 2-(((3-chlorobenzyl)oxy)methyl)-8-(((piperidin-4-ylmethyl)amino)methyl)pyrido[3,4-d]pyrimidin-4(3H)-one] | > 50% |
| O=c1[nH]c(COCc2cccc(Cl)c2)nc2c(CNC[C@H]3CCNC3)nccc12 [Example 208, (S)-2-(((3-chlorobenzyl)oxy)methyl)-8-(((pyrrolidin-3-ylmethyl)amino)methyl)pyrido[3,4-d]pyrimidin-4(3H)-one] | > 50% |
| O=c1[nH]c(COCc2ccccc2Cl)nc2c(CNCC3CCNCC3)nccc12 [Example 209, 2-(((2-chlorobenzyl)oxy)methyl)-8-(((piperidin-4-ylmethyl)amino)methyl)pyrido[3,4-d]pyrimidin-4(3H)-one] | > 50% |
| CC(Oc1ccc(Cc2ccccc2)cc1)c1nc2c(CNCC3CCNCC3)nccc2c(=O)[nH]1 (stereo not drawn) [Example 212, 2-(1-(4-benzylphenoxy)ethyl)-8-(((piperidin-4-ylmethyl)amino)methyl)pyrido[3,4-d]pyrimidin-4(3H)-one] | 20 to 50% |
| CC(Oc1ccc(Cc2ccccc2)cc1)c1nc2c(CNC[C@H]3CCNC3)nccc2c(=O)[nH]1 (stereo partly drawn) [Example 213, 2-(1-(4-benzylphenoxy)ethyl)-8-(((((S)-pyrrolidin-3-yl)methyl)amino)methyl)pyrido[3,4-d]pyrimidin-4(3H)-one] | 20 to 50% |
| C[C@@H](Oc1ccc(Cc2ccccc2)cc1)c1nc2c(CNCC3CCNCC3)nccc2c(=O)[nH]1 [Example 215, (R)-2-(1-(4-benzylphenoxy)ethyl)-8-(((piperidin-4-ylmethyl)amino)methyl)pyrido[3,4-d]pyrimidin-4(3H)-one] | > 50% |
| CCN(CCN(C)C)C(=O)CNCc1nccc2c(=O)[nH]c(COc3ccc(F)c(Cl)c3)nc12 [Example 221, 2-(((2-((3-chloro-4-fluorophenoxy)methyl)-4-oxo-3,4-dihydropyrido[3,4-d]pyrimidin-8-yl)methyl)amino)-N-(2-(dimethylamino)ethyl)-N-ethylacetamide] | > 50% |
| CCCCN(CC)C(=O)CNCc1nccc2c(=O)[nH]c(COc3ccc(F)c(Cl)c3)nc12 [Example 222, N-butyl-2-(((2-((3-chloro-4-fluorophenoxy)methyl)-4-oxo-3,4-dihydropyrido[3,4-d]pyrimidin-8-yl)methyl)amino)-N-ethylacetamide] | 20 to 50% |
| O=C(CNCc1nccc2c(=O)[nH]c(COc3ccc(F)c(Cl)c3)nc12)NC1CCN(Cc2ccccc2)C1 (stereo not drawn) [Example 232, N-(1-benzylpyrrolidin-3-yl)-2-(((2-((3-chloro-4-fluorophenoxy)methyl)-4-oxo-3,4-dihydropyrido[3,4-d]pyrimidin-8-yl)methyl)amino)acetamide] | > 50% |
| O=C(CNCc1nccc2c(=O)[nH]c(COc3ccc(F)c(Cl)c3)nc12)N1CCC(N2CCCC2)CC1 [Example 234, 2-((3-chloro-4-fluorophenoxy)methyl)-8-(((2-oxo-2-(4-(pyrrolidin-1-yl)piperidin-1-yl)ethyl)amino)methyl)pyrido[3,4-d]pyrimidin-4(3H)-one] | > 50% |
